Where no end group is shown, it is not given here.
What was measured:
Type in all cases: in vivo, human
[1] = test system: low grade prostate cancer (Gleason grade 6); experiment: Clinical study, Example 8: cancer treatment with new multifocal and an increase in Gleason grade primary pattern in the hemi-prostate; conditions: for % Imp.: cancer treatment with new multifocal and an increase in Gleason grade primary pattern in the hemi-prostate: vs control active surveillance
Method: (§1) In a series of clinical studies a total of 146 men with low grade prostate cancer (Gleason grade 6) were treated in the following manner. Patients were randomized and treated with a transrectal intraprostatic single injection of a composition comprising 2.5 mg FT (n=49), or a composition comprising 15 mg FT (n=48), or were subject to control active surveillance (n=49). After the first follow-up biopsy at 45 days post-randomization, 18 patients in the control active surveillance group crossed over to a single administration of a composition in which 10 patients received 2.5 mg FT, and 8 patients received 15 mg FT. Patients were followed for 5 years including biopsies at baseline, 45 days, 18, 36, and 48 months, and urological evaluations with PSA every 6 months. Patients with Gleason grade increase or who elected surgical or radiotherapeutic intervention exited the study and were still included in the data analysis. Percentage of normal biopsies in the baseline focus quadrant and median tumor grade and volume were assessed; progression was measured by clinical and pathological outcomes including Gleason grade, and Gleason grade primary pattern, in the entire prostate sampled as well as for the treated prostate lobe. Interventions associated with Gleason grade increase as well as total incidence for any conventional surgical intervention (e.g., surgery, radiotherapy, and/or chemotherapy) was assessed. This example evaluated the percentage of patients having conventional cancer treatment (surgery, radiotherapy, or chemotherapy), and having multifocal prostate cancer in the lobe (or hemi-prostate) in which the foci were initially treated with Gleason primary pattern (cancer treatment with new multifocal and an increase in Gleason grade primary pattern in the hemi-prostate).

[2] = test system: low grade prostate cancer (Gleason grade 6); experiment: Clinical study, Example 5: cancer treatment with new multifocal with Gleason upgrade; conditions: for % Imp.: cancer treatment with new multifocal with Gleason upgrade, entire prostate: vs control active surveillance
Method: as §1, with “assessed.” for “assessed. This example evaluated the percentage of patients having conventional cancer treatment (surgery, radiotherapy, or chemotherapy), and having multifocal prostate cancer in the lobe (or hemi-prostate) in which the foci were initially treated with Gleason primary pattern (cancer treatment with new multifocal and an increase in Gleason grade primary pattern in the hemi-prostate).”

[3] = test system: low grade prostate cancer (Gleason grade 6); experiment: Clinical study, Example 3: hemi-prostate multifocal cancer with Gleason upgrade; conditions: for % Imp.: hemi-prostate multifocal cancer with Gleason upgrade: vs control active surveillance
Method: as §1, with “assessed.” for “assessed. This example evaluated the percentage of patients having conventional cancer treatment (surgery, radiotherapy, or chemotherapy), and having multifocal prostate cancer in the lobe (or hemi-prostate) in which the foci were initially treated with Gleason primary pattern (cancer treatment with new multifocal and an increase in Gleason grade primary pattern in the hemi-prostate).”

[4] = test system: low grade prostate cancer (Gleason grade 6); experiment: Clinical study, Example 1: new multifocal with Gleason upgrade in entire prostate; conditions: for % Imp.: new multifocal with Gleason upgrade, entire prostate: vs control active surveillance
Method: as §1, with “assessed.” for “assessed. This example evaluated the percentage of patients having conventional cancer treatment (surgery, radiotherapy, or chemotherapy), and having multifocal prostate cancer in the lobe (or hemi-prostate) in which the foci were initially treated with Gleason primary pattern (cancer treatment with new multifocal and an increase in Gleason grade primary pattern in the hemi-prostate).”

[5] = FT 2.5 mg, <=18 mos from treatment
[6] = FT 2.5 mg, <=36 mos from treatment
[7] = FT 2.5 mg, <=48 mos from treatment
[8] = FT 15 mg, <=18 mos from treatment
[9] = FT 15 mg, <=36 mos from treatment
[10] = FT 15 mg, <=48 mos from treatment
[11] = Pooled FT (2.5 mg and 15 mg), <=18 mos from treatment
[12] = Pooled FT (2.5 mg and 15 mg), <=18 mos
[13] = Pooled FT (2.5 mg and 15 mg), <=36 mos from treatment
[14] = Pooled FT (2.5 mg and 15 mg), <=36 mos
[15] = Pooled FT (2.5 mg and 15 mg), <=48 mos from treatment
[16] = Pooled FT (2.5 mg and 15 mg), <=48 mos

## fexapotide triflutate (IDQQVLSRIKLEIKRCL; also: trifluoroacetate salt) [FT]
[1]; [5]
  percentage of patients: cancer treatment with new multifocal and an increase in Gleason grade primary pattern in the hemi-prostate: 0 (p = 0.025) %
[1]; FT 2.5 mg, <=18 mos
  % Imp.: cancer treatment with new multifocal and an increase in Gleason grade primary pattern in the hemi-prostate: 100%
[1]; [6]
  percentage of patients: cancer treatment with new multifocal and an increase in Gleason grade primary pattern in the hemi-prostate: 0 (p = 0.017) %
[1]; FT 2.5 mg, <=36 mos
  % Imp.: cancer treatment with new multifocal and an increase in Gleason grade primary pattern in the hemi-prostate: 100%
[1]; [7]
  percentage of patients: cancer treatment with new multifocal and an increase in Gleason grade primary pattern in the hemi-prostate: 0 (p = 0.031) %
[1]; FT 2.5 mg, <=48 mos
  % Imp.: cancer treatment with new multifocal and an increase in Gleason grade primary pattern in the hemi-prostate: 100%
[1]; [8]
  percentage of patients: cancer treatment with new multifocal and an increase in Gleason grade primary pattern in the hemi-prostate: 2.6%
[1]; FT 15 mg, <=18 mos
  % Imp.: cancer treatment with new multifocal and an increase in Gleason grade primary pattern in the hemi-prostate: 75.2%
[1]; [9]
  percentage of patients: cancer treatment with new multifocal and an increase in Gleason grade primary pattern in the hemi-prostate: 3.6%
[1]; FT 15 mg, <=36 mos
  % Imp.: cancer treatment with new multifocal and an increase in Gleason grade primary pattern in the hemi-prostate: 79.5%
[1]; [10]
  percentage of patients: cancer treatment with new multifocal and an increase in Gleason grade primary pattern in the hemi-prostate: 4.2%
[1]; FT 15 mg, <=48 mos
  % Imp.: cancer treatment with new multifocal and an increase in Gleason grade primary pattern in the hemi-prostate: 77.7%
[1]; [11]
  percentage of patients: cancer treatment with new multifocal and an increase in Gleason grade primary pattern in the hemi-prostate: 1.3 (p = 0.034) %
[1]; [12]
  % Imp.: cancer treatment with new multifocal and an increase in Gleason grade primary pattern in the hemi-prostate: 87.6%
[1]; [13]
  percentage of patients: cancer treatment with new multifocal and an increase in Gleason grade primary pattern in the hemi-prostate: 1.7 (p = 0.01) %
[1]; [14]
  % Imp.: cancer treatment with new multifocal and an increase in Gleason grade primary pattern in the hemi-prostate: 90.3%
[1]; [15]
  percentage of patients: cancer treatment with new multifocal and an increase in Gleason grade primary pattern in the hemi-prostate: 2.1 (p = 0.019) %
[1]; [16]
  % Imp.: cancer treatment with new multifocal and an increase in Gleason grade primary pattern in the hemi-prostate: 88.8%
[2]; [5]
  percentage of patients: cancer treatment with new multifocal with Gleason upgrade, entire prostate: 9.8%
[2]; FT 2.5 mg, <=18 mos
  % Imp.: cancer treatment with new multifocal with Gleason upgrade, entire prostate: 62.7%
[2]; [6]
  percentage of patients: cancer treatment with new multifocal with Gleason upgrade, entire prostate: 16.7%
[2]; FT 2.5 mg, <=36 mos
  % Imp.: cancer treatment with new multifocal with Gleason upgrade, entire prostate: 52.7%
[2]; [7]
  percentage of patients: cancer treatment with new multifocal with Gleason upgrade, entire prostate: 26%
[2]; FT 2.5 mg, <=48 mos
  % Imp.: cancer treatment with new multifocal with Gleason upgrade, entire prostate: 48%
[2]; [8]
  percentage of patients: cancer treatment with new multifocal with Gleason upgrade, entire prostate: 5.1 (p = 0.02) %
[2]; FT 15 mg, <=18 mos
  % Imp.: cancer treatment with new multifocal with Gleason upgrade, entire prostate: 80.6%
[2]; [9]
  percentage of patients: cancer treatment with new multifocal with Gleason upgrade, entire prostate: 7.1 (p = 0.17) %
[2]; FT 15 mg, <=36 mos
  % Imp.: cancer treatment with new multifocal with Gleason upgrade, entire prostate: 79.9%
[2]; [10]
  percentage of patients: cancer treatment with new multifocal with Gleason upgrade, entire prostate: 8.3 (p = 0.003) %
[2]; FT 15 mg, <=48 mos
  % Imp.: cancer treatment with new multifocal with Gleason upgrade, entire prostate: 83.4%
[2]; [11]
  percentage of patients: cancer treatment with new multifocal with Gleason upgrade, entire prostate: 7.5 (p = 0.02) %
[2]; [12]
  % Imp.: cancer treatment with new multifocal with Gleason upgrade, entire prostate: 71.5%
[2]; [13]
  percentage of patients: cancer treatment with new multifocal with Gleason upgrade, entire prostate: 12.1 (p = 0.026) %
[2]; [14]
  % Imp.: cancer treatment with new multifocal with Gleason upgrade, entire prostate: 65.7%
[2]; [15]
  percentage of patients: cancer treatment with new multifocal with Gleason upgrade, entire prostate: 17 (p = 0.009) %
[2]; [16]
  % Imp.: cancer treatment with new multifocal with Gleason upgrade, entire prostate: 66%
[3]; [5]
  percentage of patients: hemi-prostate multifocal cancer with Gleason upgrade: 8.6%
[3]; FT 2.5 mg, <=18 mos
  % Imp.: hemi-prostate multifocal cancer with Gleason upgrade: 54.26%
[3]; [6]
  percentage of patients: hemi-prostate multifocal cancer with Gleason upgrade: 16.7%
[3]; FT 2.5 mg, <=36 mos
  % Imp.: hemi-prostate multifocal cancer with Gleason upgrade: 53.2%
[3]; [7]
  percentage of patients: hemi-prostate multifocal cancer with Gleason upgrade: 42.9%
[3]; FT 2.5 mg, <=48 mos
  % Imp.: hemi-prostate multifocal cancer with Gleason upgrade: 5.7%
[3]; [8]
  percentage of patients: hemi-prostate multifocal cancer with Gleason upgrade: 5.7%
[3]; FT 15 mg, <=18 mos
  % Imp.: hemi-prostate multifocal cancer with Gleason upgrade: 69.7%
[3]; [9]
  percentage of patients: hemi-prostate multifocal cancer with Gleason upgrade: 9.1 (p = 0.049) %
[3]; FT 15 mg, <=36 mos
  % Imp.: hemi-prostate multifocal cancer with Gleason upgrade: 74.5%
[3]; [10]
  percentage of patients: hemi-prostate multifocal cancer with Gleason upgrade: 13.3%
[3]; FT 15 mg, <=48 mos
  % Imp.: hemi-prostate multifocal cancer with Gleason upgrade: 70.8%
[3]; [11]
  percentage of patients: hemi-prostate multifocal cancer with Gleason upgrade: 7.1%
[3]; [12]
  % Imp.: hemi-prostate multifocal cancer with Gleason upgrade: 62.2%
[3]; [13]
  percentage of patients: hemi-prostate multifocal cancer with Gleason upgrade: 13.0 (p = 0.0549) %
[3]; [14]
  % Imp.: hemi-prostate multifocal cancer with Gleason upgrade: 63.6%
[3]; [15]
  percentage of patients: hemi-prostate multifocal cancer with Gleason upgrade: 27.6%
[3]; [16]
  % Imp.: hemi-prostate multifocal cancer with Gleason upgrade: 39.3%
[4]; [5]
  percentage of patients: new multifocal with Gleason upgrade, entire prostate: 13.5%
[4]; FT 2.5 mg, <=18 mos
  % Imp.: new multifocal with Gleason upgrade, entire prostate: 51.4%
[4]; [6]
  percentage of patients: new multifocal with Gleason upgrade, entire prostate: 23.1%
[4]; FT 2.5 mg, <=36 mos
  % Imp.: new multifocal with Gleason upgrade, entire prostate: 47.2%
[4]; [7]
  percentage of patients: new multifocal with Gleason upgrade, entire prostate: 50%
[4]; FT 2.5 mg, <=48 mos
  % Imp.: new multifocal with Gleason upgrade, entire prostate: 12.4%
[4]; [8]
  percentage of patients: new multifocal with Gleason upgrade, entire prostate: 5.7 (p = 0.025) %
[4]; FT 15 mg, <=18 mos
  % Imp.: new multifocal with Gleason upgrade, entire prostate: 79.5%
[4]; [9]
  percentage of patients: new multifocal with Gleason upgrade, entire prostate: 9.1 (p = 0.13) %
[4]; FT 15 mg, <=36 mos
  % Imp.: new multifocal with Gleason upgrade, entire prostate: 79.2%
[4]; [10]
  percentage of patients: new multifocal with Gleason upgrade, entire prostate: 20 (p = 0.039) %
[4]; FT 15 mg, <=48 mos
  % Imp.: new multifocal with Gleason upgrade, entire prostate: 65%
[4]; [11]
  percentage of patients: new multifocal with Gleason upgrade, entire prostate: 9.7 (p = 0.044) %
[4]; [12]
  % Imp.: new multifocal with Gleason upgrade, entire prostate: 65.1%
[4]; [13]
  percentage of patients: new multifocal with Gleason upgrade, entire prostate: 16.7 (P = 0.027) %
[4]; [14]
  % Imp.: new multifocal with Gleason upgrade, entire prostate: 61.9%
[4]; [15]
  percentage of patients: new multifocal with Gleason upgrade, entire prostate: 35.5%
[4]; [16]
  % Imp.: new multifocal with Gleason upgrade, entire prostate: 37.8%

From patent US11231421B2, “Methods of treating multifocal cancer” (NYMOX CORPORATION, priority 2019, dated 2022)
